Legend:
Type in all cases: functional
Pseudomonas aeruginosa [1] = experiment: Antibacterial activity against Pseudomonas aeruginosa producing PER-1 and OXA-10 beta-lactamase assessed as reduction in MIC of ceftazidime at […] by broth microdilution method relative to control
Pseudomonas aeruginosa [2] = experiment: Antibacterial activity against Pseudomonas aeruginosa producing AmpC beta-lactamase assessed as reduction in MIC of ceftazidime at […] by broth microdilution method relative to control
Klebsiella pneumoniae = experiment: Antibacterial activity against Klebsiella pneumoniae producing KPC2 beta-lactamase assessed as reduction in MIC of ceftazidime at […] by broth microdilution method relative to control

Measured: fold change (FC)

CC1=C[C@@H](C(N)=O)N2C[C@@H]1N(OS(=O)(=O)[O-])C2=O.[Na+]
4: all assays above

CC1=C[C@@H](C(=O)NCc2cc(=O)c(O)c[nH]2)N2C[C@@H]1N(OS(=O)(=O)O)C2=O
4: all assays above

COCC1=C[C@@H](COC)N2C[C@@H]1N(OS(=O)(=O)[O-])C2=O.[Na+]
4: all assays above
